Converted amounts (≈) assume the structure as drawn. Like-named read-outs stand apart in the source and are kept apart here.
Tests used:
Format in all cases: cell-based
[1] = tested on: P. aeruginosa 2297 (AmpC wt); assay: MIC determination, broth microdilution (CLSI); conditions: Pseudomonas aeruginosa, strain 7
M. morganii 126/3048 = assay: MIC determination, broth microdilution (CLSI); conditions: Morganella morganii, 126/3048, strain 5
A. baumannii ATCC15308 = assay: MIC determination, broth microdilution (CLSI); conditions: Acinetobacter baumannii, ATCC15308, strain 9
C. freundii K21/3034 = assay: MIC determination, broth microdilution (CLSI); conditions: Citrobacter freundii, K21/3034, strain 4
K. pneumoniae 60 = assay: MIC determination, broth microdilution (CLSI); conditions: Klebsiella pneumoniae, 60, strain 2
H. influenzae ATCC 49247 = assay: MIC determination, broth microdilution (CLSI); conditions: Haemophilus influenzae, ATCC49247, strain 12; broth microdilution; read-out: MIC strain 12 (H. influenzae ATCC 49247)
E. coli ATCC25922 = assay: MIC determination, broth microdilution (CLSI); conditions: Escherichia coli, ATCC25922, strain 1
B. fragilis 6688 = assay: MIC determination, broth microdilution (CLSI); conditions: Bacteroides fragilis, 6688, strain 15; broth microdilution; read-out: MIC strain 15 (B. fragilis 6688)
E. cloacae 34654 = assay: MIC determination, broth microdilution (CLSI); conditions: Enterobacter cloacae, 34654, strain 3
E. coli J62 = assay: MIC determination, broth microdilution (CLSI); conditions: Escherichia coli, J62, strain 17; broth microdilution; read-out: MIC strain 17 (E. coli J62)
Bacteria = assay: MIC determination in combination with β-lactamase inhibitors (constant 4 μg/mL)
P. aeruginosa PAO1 = assay: MIC determination, broth microdilution (CLSI); conditions: Pseudomonas aeruginosa, PAO1, strain 6
S. pneumoniae 113 = assay: MIC determination, broth microdilution (CLSI); conditions: Streptococcus pneumoniae, 113, strain 13; broth microdilution; read-out: MIC strain 13 (S. pneumoniae 113)
C. perfringens DSM756 = assay: microbe, parasite or virus in culture; conditions: Clostridium perfringens, DSM756, read-out: MIC strain 16 (C. perfringens DSM756), strain 16; broth microdilution
S. aureus 133 = assay: MIC determination, broth microdilution (CLSI)
E. coli J62-TEM-3 = assay: MIC determination, broth microdilution (CLSI); conditions: Escherichia coli, J62TEM3, read-out: MIC strain 18 (E. coli J62-TEM-3), strain 18; broth microdilution
[2] = tested on: P. aeruginosa 2297-con (AmpC derepressed); assay: MIC determination, broth microdilution (CLSI); conditions: Pseudomonas aeruginosa, read-out: strain 8 MIC, strain 8
[3] = Staphylococcus aureus, 133, strain 11, read-out: strain 11 MIC
[4] = Staphylococcus aureus, 133, strain 14, broth microdilution, read-out: MIC strain 14 (S. aureus 133)

N=C(N)c1ccc(OCCO/N=C(\C(=O)N[C@@H]2C(=O)N(S(=O)(=O)O)[C@@H]2C(N)=O)c2csc(N)n2)cc1 [Example 66, (2S,3S)-3-{[(2Z)-2-(2-Amino-1,3-thiazol-4-yl)-2-{[2-(4-carbamimidoylphenoxy)-ethoxy]imino}acetyl]amino}-2-carbamoyl-4-oxoazetidine-1-sulfonic acid]
MIC [1]: 32 µg/mL (≈ 59.2 µM)
MIC (M. morganii 126/3048): 2 µg/mL (≈ 3.7 µM)
MIC (A. baumannii ATCC15308): 4 µg/mL (≈ 7.4 µM)
MIC (C. freundii K21/3034): 2 µg/mL (≈ 3.7 µM)
MIC (K. pneumoniae 60): 1 µg/mL (≈ 1.85 µM)
MIC (H. influenzae ATCC 49247): 2 µg/mL (≈ 3.7 µM)
MIC (E. coli ATCC25922): 2 µg/mL (≈ 3.7 µM)
MIC (B. fragilis 6688): 16 µg/mL (≈ 29.6 µM)
MIC (E. cloacae 34654): 4 µg/mL (≈ 7.4 µM)
MIC (E. coli J62): 2 µg/mL (≈ 3.7 µM)
MIC strain 19 (E. coli J62-TEM-3 + 4 μg/mL clavulanic acid) (Bacteria): 2 µg/mL
MIC strain 20 (E. coli J62-TEM-3 + 4 μg/mL sulbactam) (Bacteria): 2 µg/mL
MIC strain 21 (E. coli J62-TEM-3 + 4 μg/mL tazobactam) (Bacteria): 2 µg/mL
MIC (P. aeruginosa PAO1): 32 µg/mL (≈ 59.2 µM)
MIC (S. pneumoniae 113): 1 µg/mL (≈ 1.85 µM)
MIC (C. perfringens DSM756): 16 µg/mL (≈ 29.6 µM)
MIC (S. aureus 133; [3]): 1 µg/mL (≈ 1.85 µM)
MIC (E. coli J62-TEM-3): 4 µg/mL (≈ 7.4 µM)

C[C@H]1[C@H](NC(=O)/C(=N\OCCOc2ccc(C(=N)NCCO)cc2)c2csc(N)n2)C(=O)N1S(=O)(=O)O [Example 69, (2S,3S)-3-({(2Z)-2-(2-Amino-1,3-thiazol-4-yl)-2-[(2-{4-[N-(2-hydroxyethyl)carbamimidoyl]-phenoxy}ethoxy)imino]acetyl}amino)-2-methyl-4-oxoazetidine-1-sulfonic acid]
MIC [1]: 8 µg/mL (≈ 14.4 µM)
MIC (M. morganii 126/3048): 0.125 µg/mL (≈ 0.225 µM)
MIC (A. baumannii ATCC15308): 2 µg/mL (≈ 3.6 µM)
MIC (C. freundii K21/3034): 0.125 µg/mL (≈ 0.225 µM)
MIC (K. pneumoniae 60): 0.25 µg/mL (≈ 0.45 µM)
MIC (H. influenzae ATCC 49247): ≤ 0.063 µg/mL
MIC (E. coli ATCC25922): 0.125 µg/mL (≈ 0.225 µM)
MIC (B. fragilis 6688): 1 µg/mL (≈ 1.8 µM)
MIC (E. cloacae 34654): 0.25 µg/mL (≈ 0.45 µM)
MIC (E. coli J62): 0.25 µg/mL (≈ 0.45 µM)
MIC strain 19 (E. coli J62-TEM-3 + 4 μg/mL clavulanic acid) (Bacteria): 0.25 µg/mL
MIC strain 20 (E. coli J62-TEM-3 + 4 μg/mL sulbactam) (Bacteria): 0.25 µg/mL
MIC strain 21 (E. coli J62-TEM-3 + 4 μg/mL tazobactam) (Bacteria): 0.25 µg/mL
MIC (P. aeruginosa PAO1): 4 µg/mL (≈ 7.2 µM)
MIC (S. pneumoniae 113): ≤ 0.063 µg/mL
MIC (C. perfringens DSM756): 1 µg/mL (≈ 1.8 µM)
MIC (S. aureus 133; [3]): ≤ 0.063 µg/mL
MIC (S. aureus 133; [4]): 4 µg/mL (≈ 7.2 µM)
MIC (E. coli J62-TEM-3): 16 µg/mL (≈ 28.8 µM)

CC1(C)[C@H](NC(=O)/C(=N\OCCOc2ccc(C(=N)NCC[N+]3(C)CCCC3)cc2)c2csc(N)n2)C(=O)N1OS(=O)(=O)O.O=C([O-])C(F)(F)F [Example 79, 1-(2-{[{4-[2-({[(1Z)-1-(2-Amino-1,3-thiazol-4-yl)-2-{[(3S)-2,2-dimethyl-4-oxo-1-(sulfo-oxy)azetidin-3-yl]amino}-2-oxoethylidene]amino}oxy)ethoxy]phenyl}(imino)-methyl]amino}ethyl)-1-methylpyrrolidinium chloride]
MIC [1]: 8 µg/mL
MIC (M. morganii 126/3048): 1 µg/mL
MIC (A. baumannii ATCC15308): 0.5 µg/mL
MIC (C. freundii K21/3034): 0.25 µg/mL
MIC (K. pneumoniae 60): 0.5 µg/mL
MIC (H. influenzae ATCC 49247): ≤ 0.063 µg/mL
MIC (E. coli ATCC25922): 0.5 µg/mL
MIC (B. fragilis 6688): 4 µg/mL
MIC (E. cloacae 34654): 0.5 µg/mL
MIC (E. coli J62): 0.5 µg/mL
MIC strain 19 (E. coli J62-TEM-3 + 4 μg/mL clavulanic acid) (Bacteria): 0.5 µg/mL
MIC strain 20 (E. coli J62-TEM-3 + 4 μg/mL sulbactam) (Bacteria): 0.5 µg/mL
MIC strain 21 (E. coli J62-TEM-3 + 4 μg/mL tazobactam) (Bacteria): 0.5 µg/mL
MIC (P. aeruginosa PAO1): 8 µg/mL
MIC [2]: 4 µg/mL
MIC (S. pneumoniae 113): ≤ 0.063 µg/mL
MIC (C. perfringens DSM756): 2 µg/mL
MIC (S. aureus 133; [3]): ≤ 0.063 µg/mL
MIC (S. aureus 133; [4]): 2 µg/mL
MIC (E. coli J62-TEM-3): 8 µg/mL

CC1(C)[C@H](NC(=O)/C(=N\O[C@H](COc2ccc(C(=N)NC(CN)CN)cc2)C(=O)O)c2csc(N)n2)C(=O)N1OS(=O)(=O)O [Example 103, (2R)-2-({[(1Z)-1-(2-Amino-1,3-thiazol-4-yl)-2-{[(3S)-2,2-dimethyl-4-oxo-1-(sulfooxy)-azetidin-3-yl]amino}-2-oxoethylidene]amino}oxy)-3-{4-[N-(1,3-diaminopropan-2-yl)carbamimidoyl]phenoxy}propanoic acid]
MIC (M. morganii 126/3048): 2 µg/mL (≈ 3.04 µM)
MIC (A. baumannii ATCC15308): 32 µg/mL (≈ 48.7 µM)
MIC (H. influenzae ATCC 49247): 0.25 µg/mL (≈ 0.38 µM)
MIC (E. coli ATCC25922): 2 µg/mL (≈ 3.04 µM)
MIC (P. aeruginosa PAO1): 16 µg/mL (≈ 24.3 µM)
MIC (S. pneumoniae 113): 4 µg/mL (≈ 6.08 µM)
MIC (C. perfringens DSM756): 32 µg/mL (≈ 48.7 µM)
MIC (S. aureus 133; [3]): ≤ 0.063 µg/mL

From patent US9556165B2 (priority 2012, dated 2017)
